Data on 21 molecules can be found in patent US20040204455A1, “Piperidine derivative rennin inhibitors” (priority 2003, published 2004).

The target of the experiment is T1, human renin (Homo sapiens, UniProt P00797).
T1 sequence (P00797 67-406): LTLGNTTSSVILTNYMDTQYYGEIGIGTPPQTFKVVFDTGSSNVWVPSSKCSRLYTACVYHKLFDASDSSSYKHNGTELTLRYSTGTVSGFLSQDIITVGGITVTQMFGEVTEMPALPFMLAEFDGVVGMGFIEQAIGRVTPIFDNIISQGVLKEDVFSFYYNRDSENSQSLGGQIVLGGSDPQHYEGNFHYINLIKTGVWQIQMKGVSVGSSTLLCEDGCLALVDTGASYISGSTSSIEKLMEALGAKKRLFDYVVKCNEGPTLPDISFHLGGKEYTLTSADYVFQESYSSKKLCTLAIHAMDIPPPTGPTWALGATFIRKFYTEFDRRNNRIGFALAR
Briefly: Determination of Renin IC50 by tGFP FRET Assay. The format is biochemical. To be noted: Human recombinant renin, tandem GFP substrate 650 nM, renin and compound incubated 60 minutes before substrate, pH 7.4. The source says: Determination of Renin IC50 by tGFP FRET Assay
The tGFP FRET (Green Fluorescent Protein Fluorescence Resonance Energy Transfer) assay utilizes a tandem GFP substrate (60 kDa) containing nine amino acid recognition sequences for human renin flanked by two GFP proteins. The assay is used to determine the ability of a compound to act as an inhibitor of renin enzymatic activity by determination of that concentration of test compound that inhibits by 50% (IC50) the ability of renin to cleave the tandem GFP substrate. The IC50 values are determined over an 11-point curve at concentrations of 100 μM to […]. Each compound concentration used to construct the curve was dependent on renin inhibitor potency. For example, subnanomolar IC50 values were determined over an 11-point curve at concentrations of 10 μM to […]. All other IC50 values were determined over an 11-point curve at concentrations of 100 μM to 0.0065 μM. The concentrations were achieved by diluting a 9.1 nM stock of Human recombinant renin in the appropriate amount of buffer containing 50 mM HEPES, 1 mM EDTA, 1% PEG (8000 MW), 1 mM DTT, 0.1% BSA, pH 7.4 to achieve the final concentration of 50.4 μIU. The tGFP substrate stock solution of 43 μM was diluted with the appropriate amount of the above buffer to obtain the final concentration of 650 nM. In addition, 1 μl of the compound is diluted in DSMO to represent an […] log scale (5% final). The renin and compound are added to a 384 capacity plate by an automated robot (BIOMEK). The plate is incubated for 60 minutes; upon completion the tGFP substrate is added.
The IC50 is determined by monitoring the increase in […] at 432/432 nm excitation, 530/475 nm emission with a cutoff at 515/455 nm, in a fluorometric plate reader.

Structures are written as SMILES.

Regarding `COc1ccccc1COCCCOc1ccc([C@H]2CCNC[C@H]2NCc2ccc3[nH]ccc3c2)cc1` (racemic) [(1H-indol-5-ylmethyl)-(4-{4-[3-(2-methoxy-benzyloxy)-propoxy]-phenyl}-piperidin-3-yl)-amine], the IC50 (as a rule, the point on the concentration scale where inhibition reaches its midpoint) is above 1000 nM.
The same measure for `O=C1CCC(=O)N1CCOc1cccc(CN[C@H]2CNCC[C@H]2c2ccc(OCCCOCc3ccccc3F)cc2)c1` (racemic) [1-(2-{3-[(4-{4-[3-(2-Fluoro-benzyloxy)-propoxy]-phenyl}-piperidin-3-ylamino)-methyl]-phenoxy}-ethyl)-pyrrolidine-2,5-dione]: 1400 nM; for `COc1ccccc1COCCCOc1ccc([C@H]2CCNC[C@H]2NCc2ccc3cc(O)ccc3c2)cc1` (racemic) [6-[(4-{4-[3-(2-methoxy-benzyloxy)-propoxy]-phenyl}-piperidin-3-ylamino)-methyl]-naphthalen-2-ol]: above 1000 nM; for `COc1ccc2cc(CN[C@@H]3CNCC[C@@H]3c3ccc(OCCCOCc4ccccc4OC)cc3)ccc2c1` (racemic) [(4-{4-[3-(2-methoxy-benzyloxy)-propoxy]-phenyl}-piperidin-3-yl)-(6-methoxy-naphthalen-2-ylmethyl)-amine]: 74.3 nM.
To `O=S(=O)(N[C@@H]1CNCC[C@@H]1c1ccc(OCCCOCc2ccccc2F)cc1)c1ccc2ccccc2c1` (racemic) [Naphthalene-2-sulfonic acid (4-{4-[3-(2-fluoro-benzyloxy)-propoxy]-phenyl}-piperidin-3-yl)-amide] belongs 693 nM.
To `COC(=O)COc1cccc(CN[C@H]2CNCC[C@H]2c2ccc(OCCCOCc3ccccc3F)cc2)c1` (racemic) [{3-[(4-{4-[3-(2-Fluoro-benzyloxy)-propoxy]-phenyl}-piperidin-3-ylamino)-methyl]-phenoxy}-acetic acid methyl ester] belongs 924 nM; to `COC(=O)c1ccc2cc(CN[C@@H]3CNCC[C@@H]3c3ccc(OCCCOCc4ccccc4OC)cc3)ccc2c1` [6-[(4-{4-[3-(2-Methoxy-benyloxy)-propoxy]-phenyl}-piperidin-3-ylamino)-methyl]-naphthalene-2-carboxylic acid methyl ester], 329 nM; to `COc1ccccc1COCCCOc1ccc([C@H]2CCNC[C@H]2NCc2ccc3c(c2)NCCC3)cc1` (racemic) [(4-{4-[3-(2-methoxy-benzyloxy)-propoxy]-phenyl}-piperidin-3-yl)-(1,2,3,4-tetrahydro-quinolin-7-ylmethyl)-amine], 226 nM.
As for `Fc1ccccc1COCCCOc1ccc([C@@H]2CCNC[C@@H]2NCc2ccc(F)c(C(F)(F)F)c2)cc1` (racemic) [(4-{4-[3-(2-fluoro-benzyloxy)-propoxy]-phenyl}-piperidin-3-yl)-(4-fluoro-3-trifluoromethyl-benzyl)-amine], the 50% inhibitory concentration (IC50) turned out to be 454 nM.
The same measure for `COc1ccccc1COCCCOc1ccc([C@H]2CCNC[C@H]2NCc2ccc3c(c2)N(CCN(C)C)CCC3)cc1` (racemic) [[1-(2-dimethylamino-ethyl)-1,2,3,4-tetrahydro-quinolin-7-ylmethyl]-(4-{4-[3-(2-methoxybenzyloxy)-propoxy]-phenyl}-piperidin-3-yl)-amine]: above 1000 nM; for `O=C1CCCN1CCOc1cccc(CN[C@H]2CNCC[C@H]2c2ccc(OCCCOCc3ccccc3F)cc2)c1` (racemic) [1-(2-{3-[(4-{4-[3-(2-Fluoro-benzyloxy)-propoxy]-phenyl}-piperidin-3-ylamino)-methyl]-phenoxy}-ethyl)-pyrrolidine-2-one]: 932 nM.
To `COc1ccccc1COCCCOc1ccc([C@H]2CCNC[C@H]2NCc2ccc3occc3c2)cc1` (racemic) [benzofuran-5-ylmethyl-(4-{4-[3-(2-methoxy-benzyloxy)-propoxy]-phenyl}-piperidin-3-yl)-amine] belongs 393 nM; to `COc1ccccc1COCCCOc1ccc([C@H]2CCNC[C@H]2NCc2ccc3cccnc3c2)cc1` (racemic) [(4-{4-[3-(2-methoxy-benzyloxy)-propoxy]-phenyl}-piperidin-3-yl)-quinolin-7-ylmethyl-amine], 175 nM.
To `COc1ccccc1COCCCOc1ccc([C@H]2CCNC[C@H]2N(C)Cc2ccc3ccccc3c2)cc1` (racemic) [(4-{4-[3-(2-methoxy-benzyloxy)-propoxy]-phenyl}-piperidin-3-yl)-methyl-naphthalen-2-ylmethyl-amine] belongs 573 nM; to `O=C(O)c1ccc2cc(CN[C@@H]3CNCC[C@@H]3c3ccc(OCCCOCc4ccccc4F)cc3)ccc2c1` [6-[(4-{4-[3-(2-Fluoro-benyloxy)-propoxy]-phenyl}-piperidin-3-ylamino)-methyl]-naphthalene-2-carboxylic acid], above 1000 nM.
`COC(=O)c1cccc(CN[C@@H]2CNCC[C@@H]2c2ccc(OCCCOCc3ccccc3F)cc2)n1` (racemic) [6-[(4-{4-[3-(2-Fluoro-benzyloxy)-propoxy]-phenyl}-piperidin-3-ylamino)-methyl]-pyridine-2-carboxylic acid methyl ester]: the IC50 came out at 6980 nM.
The same measure for `COC(=O)c1ccc2cc(CN[C@@H]3CNCC[C@@H]3c3ccc(OCCCOCc4ccccc4F)cc3)ccc2c1` [6-[(4-{4-[3-(2-Fluoro-benyloxy)-propoxy]-phenyl}-piperidin-3-ylamino)-methyl]-naphthalene-2-carboxylic acid methyl ester]: 877 nM.
The same measure for `COc1ccccc1COCCCOc1ccc([C@H]2CCNC[C@H]2NCc2ccc3c(C(=O)O)cccc3c2)cc1` [6-[(4-[4-(2-methoxy-benzyloxy)-propoxyl]-phenyl}-piperidin-3-ylamino)-methyl]-naphthalene-1-carboxylic acid]: 2600 nM.
To `COc1ccccc1COCCCOc1ccc([C@H]2CCNC[C@H]2NCc2ccc3ccccc3c2)cc1` (racemic) [(4-{4-[3-(2-methoxy-benzyloxy)-propoxy]-phenyl}-piperidin-3-yl)-naphthalen-2-ylmethyl-amine] belongs 87 nM; to `COc1ccccc1COCCCOc1ccc([C@H]2CCNC[C@H]2NC(=O)c2cccc3ccccc23)cc1` (racemic) [naphthalene-1-carboxylic acid (4-{4-[3-(2-methoxy-benzyloxy)-propoxy]-phenyl}-piperidin-3-yl)-amide], above 1000 nM.
For `COC(=O)c1cccc2cc(CN[C@@H]3CNCC[C@@H]3c3ccc(OCCCOCc4ccccc4OC)cc3)ccc12` [6-[(4-[3-(2-methoxy-benzyloxy)-propoxyl]-phenyl}-piperidin-3-ylamino)-methyl]-naphthalene-1-carboxylic acid methyl ester], the IC50 was found to be 282 nM.
